# Results taken from PubChem BioAssay (NCI).
#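 Step 1: Grow cells in 96-well plates. Step 2: Expose to compound for 48 hours at 5 concentrations. Step 3: Interpolate endpoints linearly; if unreached, use highest concentration. GI50 marks 50% less growth. TGI: concentration producing complete growth inhibition.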
# What was measured:
# Assay in all cases: NCI tumour cell line growth inhibition, 48 h
# [1] = test system: 786-0 renal
# [2] = test system: A498 renal
# [3] = test system: A549 NSCLC
# [4] = test system: ACHN renal
# [5] = test system: CAKI-1 renal
# [6] = test system: CCRF-CEM leukemia
# [7] = test system: COLO 205 colon
# [8] = test system: DLD-1 colon
# [9] = test system: DMS 114 small cell lung
# [10] = test system: DMS 273 small cell lung
# [11] = test system: EKVX NSCLC
# [12] = test system: HCC-2998 colon
# [13] = test system: HCT-116 colon
# [14] = test system: HCT-15 colon
# [15] = test system: HL-60(TB) leukemia
# [16] = test system: HOP-18 NSCLC
# [17] = test system: HOP-62 NSCLC
# [18] = test system: HT29 colon
# [19] = test system: IGROV1 ovarian
# [20] = test system: K-562 leukemia
# [21] = test system: KM12 colon
# [22] = test system: KM20L2 colon
# [23] = test system: LOX IMVI melanoma
# [24] = test system: LXFL 529 NSCLC
# [25] = test system: M14 melanoma
# [26] = test system: M19-MEL melanoma
# [27] = test system: MALME-3M melanoma
# [28] = test system: MOLT-4 leukemia
# [29] = test system: NCI-H226 lung
# [30] = test system: NCI-H23 lung
# [31] = test system: NCI-H460 lung
# [32] = test system: NCI-H522 lung
# [33] = test system: OVCAR-3 ovarian
# [34] = test system: OVCAR-4 ovarian
# [35] = test system: OVCAR-5 ovarian
# [36] = test system: OVCAR-8 ovarian
# [37] = test system: RPMI-8226 leukemia
# [38] = test system: RXF 393 renal
# [39] = test system: RXF-631 renal
# [40] = test system: SF-268 CNS
# [41] = test system: SF-295 CNS
# [42] = test system: SF-539 CNS
# [43] = test system: SK-MEL-2 melanoma
# [44] = test system: SK-MEL-28 melanoma
# [45] = test system: SK-MEL-5 melanoma
# [46] = test system: SK-OV-3 ovarian
# [47] = test system: SN12C renal
# [48] = test system: SNB-19 CNS
# [49] = test system: SNB-75 CNS
# [50] = test system: SNB-78 CNS
# [51] = test system: SW-620 colon
# [52] = test system: TK-10 renal
# [53] = test system: UACC-257 melanoma
# [54] = test system: UACC-62 melanoma
# [55] = test system: UO-31 renal
# [56] = test system: XF 498 CNS
# [57] = test system: HOP-92 NSCLC
# [58] = test system: MCF7 breast
# [59] = test system: NCI/ADR-RES ovarian
# [60] = test system: P388 leukemia
# [61] = test system: P388/ADR leukemia
# [62] = test system: SN12K1 renal
# [63] = test system: U251 CNS
compound,measurement,setting,value
[O-]c1ccccc1C=Nc1ccc2c(c1)CCC2.[O-]c1ccccc1C=Nc1ccc2c(c1)CCC2.[O]=[U+2]=[O],GI50,[1],40.3 µM
same,TGI,[1],> 100 µM
same,GI50,[2],> 100 µM
same,TGI,[2],> 100 µM
same,GI50,[3],> 100 µM
same,TGI,[3],> 100 µM
same,GI50,[4],70.3 µM
same,TGI,[4],> 100 µM
same,GI50,[5],> 100 µM
same,TGI,[5],> 100 µM
same,GI50,[6],8.39 µM
same,TGI,[6],> 100 µM
same,GI50,[7],55.2 µM
same,TGI,[7],> 100 µM
same,GI50,[8],27.8 µM
same,TGI,[8],> 100 µM
same,GI50,[9],7.05 µM
same,TGI,[9],> 100 µM
same,GI50,[10],14.2 µM
same,TGI,[10],> 100 µM
same,GI50,[11],> 100 µM
same,TGI,[11],> 100 µM
same,GI50,[12],57.1 µM
same,TGI,[12],> 100 µM
same,GI50,[13],13.5 µM
same,TGI,[13],> 100 µM
same,GI50,[14],28.3 µM
same,TGI,[14],> 100 µM
same,GI50,[15],9.43 µM
same,TGI,[15],> 100 µM
same,GI50,[16],8.74 µM
same,TGI,[16],> 100 µM
same,GI50,[17],> 100 µM
same,TGI,[17],> 100 µM
same,GI50,[18],> 100 µM
same,TGI,[18],> 100 µM
same,GI50,[19],41 µM
same,TGI,[19],> 100 µM
same,GI50,[20],11.8 µM
same,TGI,[20],> 100 µM
same,GI50,[21],> 100 µM
same,TGI,[21],> 100 µM
same,GI50,[22],56.6 µM
same,TGI,[22],> 100 µM
same,GI50,[23],9.92 µM
same,TGI,[23],> 100 µM
same,GI50,[24],28.4 µM
same,TGI,[24],> 100 µM
same,GI50,[25],> 100 µM
same,TGI,[25],> 100 µM
same,GI50,[26],> 100 µM
same,TGI,[26],> 100 µM
same,GI50,[27],> 100 µM
same,TGI,[27],> 100 µM
same,GI50,[28],12.4 µM
same,TGI,[28],> 100 µM
same,GI50,[29],> 100 µM
same,TGI,[29],> 100 µM
same,GI50,[30],> 100 µM
same,TGI,[30],> 100 µM
same,GI50,[31],47.3 µM
same,TGI,[31],> 100 µM
same,GI50,[32],> 100 µM
same,TGI,[32],> 100 µM
same,GI50,[33],> 100 µM
same,TGI,[33],> 100 µM
same,GI50,[34],> 100 µM
same,TGI,[34],> 100 µM
same,GI50,[35],> 100 µM
same,TGI,[35],> 100 µM
same,GI50,[36],59.3 µM
same,TGI,[36],> 100 µM
same,GI50,[37],16.5 µM
same,TGI,[37],> 100 µM
same,GI50,[38],> 100 µM
same,TGI,[38],> 100 µM
same,GI50,[39],> 100 µM
same,TGI,[39],> 100 µM
same,GI50,[40],> 100 µM
same,TGI,[40],> 100 µM
same,GI50,[41],> 100 µM
same,TGI,[41],> 100 µM
same,GI50,[42],14.2 µM
same,TGI,[42],> 100 µM
same,GI50,[43],> 100 µM
same,TGI,[43],> 100 µM
same,GI50,[44],> 100 µM
same,TGI,[44],> 100 µM
same,GI50,[45],60.8 µM
same,TGI,[45],> 100 µM
same,GI50,[46],> 100 µM
same,TGI,[46],> 100 µM
same,GI50,[47],> 100 µM
same,TGI,[47],> 100 µM
same,GI50,[48],27.9 µM
same,TGI,[48],> 100 µM
same,GI50,[49],82.7 µM
same,TGI,[49],> 100 µM
same,GI50,[50],> 100 µM
same,TGI,[50],> 100 µM
same,GI50,[51],> 100 µM
same,TGI,[51],> 100 µM
same,GI50,[52],30.1 µM
same,TGI,[52],82.2 µM
same,GI50,[53],> 100 µM
same,TGI,[53],> 100 µM
same,GI50,[54],> 100 µM
same,TGI,[54],> 100 µM
same,GI50,[55],31.2 µM
same,TGI,[55],> 100 µM
same,GI50,[56],> 100 µM
same,TGI,[56],> 100 µM
C[S+](C)CC1OC(n2cnc3c(N)ncnc32)C(O)C1O (stereo not drawn),TGI,[2],> 225 µM
same,TGI,[3],> 225 µM
same,TGI,[5],> 225 µM
same,TGI,[6],> 225 µM
same,TGI,[7],> 225 µM
same,TGI,[8],> 225 µM
same,TGI,[9],> 225 µM
same,TGI,[10],> 225 µM
same,TGI,[11],> 225 µM
same,TGI,[12],> 225 µM
same,TGI,[13],> 225 µM
same,TGI,[14],> 225 µM
same,TGI,[15],> 225 µM
same,TGI,[17],> 225 µM
same,TGI,[57],> 225 µM
same,TGI,[18],> 225 µM
same,TGI,[19],> 225 µM
same,TGI,[20],> 225 µM
same,TGI,[21],> 225 µM
same,TGI,[22],> 225 µM
same,TGI,[23],> 225 µM
same,TGI,[26],> 225 µM
same,TGI,[27],> 225 µM
same,TGI,[58],> 225 µM
same,TGI,[28],> 225 µM
same,TGI,[29],> 225 µM
same,TGI,[30],> 225 µM
same,TGI,[31],> 225 µM
same,TGI,[32],> 225 µM
same,TGI,[59],> 225 µM
same,TGI,[33],> 225 µM
same,TGI,[34],> 225 µM
same,TGI,[35],> 225 µM
same,TGI,[36],> 225 µM
same,TGI,[60],> 225 µM
same,TGI,[61],> 22.5 µM
same,TGI,[37],> 225 µM
same,TGI,[38],> 225 µM
same,TGI,[40],> 225 µM
same,TGI,[41],> 225 µM
same,TGI,[42],> 225 µM
same,TGI,[43],> 225 µM
same,TGI,[44],> 225 µM
same,TGI,[45],> 225 µM
same,TGI,[46],> 225 µM
same,TGI,[47],> 225 µM
same,TGI,[62],> 225 µM
same,TGI,[48],> 225 µM
same,TGI,[49],> 225 µM
same,TGI,[50],> 225 µM
same,TGI,[51],> 225 µM
same,TGI,[63],> 225 µM
same,TGI,[53],> 225 µM
same,TGI,[54],> 200 µM
same,TGI,[55],> 225 µM
same,TGI,[56],> 225 µM
